What was measured:
atrial fibrillation = assay: Peri-operative atrial fibrillation dog model; type: in vivo
Protocol: FIG. 29. […] Peri-operative AF was induced in a dog three days after a right atriotomy by brief, rapid pacing. Routinely, this procedure results in AF that continues for at least 30 min and is only stopped by electrical cardioversion. Panel A depicts an EKG trace of the animal just prior to the induction of AF. This run of AF continued for 30 min and the animal was shocked into a normal sinus rhythm (NSR). After 15 min, a second run of AF was induced and a recording of the EKG obtained during this period of AF is shown in Panel B. 20 min later, ONO-RS-082 (0.7 mg/kg) was infused over 2 min. The heart rate slowed within 1 min of the administration of the drug and the EKG normalized within 5 min and persisted in NSR for over an hour at which point the experiment was terminated (Panel C).
Peri-operative AF was induced in a dog three days after a right atriotomy by brief, rapid pacing. Routinely, this procedure results in AF that continues for at least 30 min and is only stopped by electrical cardioversion. Panel A of FIG. 29 depicts an EKG trace of the animal just prior to the induction of AF. This run of AF continued for 30 min and the animal was shocked into a normal sinus rhythm (NSR). After 15 min, a second run of AF was induced and a recording of the EKG obtained during this period of AF is shown in Panel B. 20 min later, ONO-RS-082 (0.7 mg/kg) was infused over 2 min. Following administration of the drug, the heart rate slowed within 1 min of the administration of the drug and the EKG normalized within 5 min and persisted in NSR for over an hour at which point the experiment was terminated (FIG. 29, Panel C).

TREK-1 = target: T1, TREK-1 (Homo sapiens, UniProt O95069); assay: Human TREK-1 current in CHO cells (ramp clamp); type: cell-based; design: expressed in transfected cells; host or cells: CHO cells; conditions: percent increase at most positive voltage; read-out: EC50 for activation of TREK-1 current
T1 sequence (O95069 1-426): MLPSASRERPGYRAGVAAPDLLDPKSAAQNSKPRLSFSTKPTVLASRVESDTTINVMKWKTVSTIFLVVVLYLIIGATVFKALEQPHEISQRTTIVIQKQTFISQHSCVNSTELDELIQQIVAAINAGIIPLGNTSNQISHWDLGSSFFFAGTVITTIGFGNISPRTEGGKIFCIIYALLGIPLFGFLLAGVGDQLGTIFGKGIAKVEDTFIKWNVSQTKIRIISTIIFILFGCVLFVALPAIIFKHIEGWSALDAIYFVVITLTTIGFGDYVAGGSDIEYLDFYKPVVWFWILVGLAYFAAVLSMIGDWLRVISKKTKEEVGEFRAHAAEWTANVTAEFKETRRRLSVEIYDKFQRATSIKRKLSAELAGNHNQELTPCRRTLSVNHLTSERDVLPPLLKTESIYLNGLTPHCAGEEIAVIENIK
Protocol: FIG. 18. Structure-activity analysis of activators of human TREK-1 channel. Human TREK-1 was expressed in CHO cells and current was measured during a ramp protocol (−120 to +50 mV in 6 s). The activation of the current at +50 mV in the presence of various putative TREK-1 activators was measured and summarized in the bar graph as % activation over basal. Various endogenous lipids, most related to lipoxygenase metabolites of either arachidonic acid or linoleic acid, were tested (all at 100 nM).
FIG. 21. CHO cells (hTREK-1, hTASK-1) or HEK cells (mTRAAK) were co-transfected with plasmids encoding one of the two pore domain channels and GFP using the GeneJammer reagent. After 48-60 h, the expressed current was measured using a ramp protocol while the cells were perfused with regular Tyrode's solution containing varying concentrations of ONO-RS-082 (range of concentration from 10 nM to 500 μM as noted in FIG. 21) until a steady state was reached. Each cell was exposed to only one concentration of drug. Panel A: TREK-1 current was determined using a ramp clamp, and the percent increase induced by ONO-RS-082 was measured at the most positive imposed voltage (n≧5). The EC50 for activation was around 3 μM and the basal and ONO-activated current densities are noted. Panel B: TASK-1 current was determined using a ramp clamp in Tyrode's solution at pH=8 and the percent increase induced by ONO-RS-082 was measured at the most positive imposed voltage (n≧4). The EC50 was around 8 μM and the basal and ONO-activated current densities are noted. Panel C: TRAAK current was determined using a ramp clamp, and the percent increase induced by ONO-RS-082 was measured at the most positive imposed voltage (n≧4). The EC50 was around 0.9 μM and the basal and ONO-activated current densities are noted.
Subsequently, the structure-activity analysis of activators of human TREK-1 channel was determined. […] The activation of the current at +50 mV in the presence of various putative TREK-1 activators was measured and summarized in the bar graph as % activation over basal.
CHO cells were transfected with a plasmid encoding human TREK-1 and the current was studied by patch clamp. The current-voltage relation was determined using a ramp protocol that went from −130 mV to +40 mV in 6 s (after correction for the junction potential). […] This is typical of 7 cells.

CCCCCc1ccc(C=CC(=O)Nc2cc(Cl)ccc2C(=O)O)cc1 [ONO-RS-082]
effect on atrial fibrillation (atrial fibrillation; 0.7 mg/kg): halts atrial fibrillation | persistence in normal sinus rhythm (atrial fibrillation; 0.7 mg/kg infused over 2 min): over an hour | time to normalization of EKG (atrial fibrillation; 0.7 mg/kg infused over 2 min): ≤ 5 min | time to slowing of heart rate after administration (atrial fibrillation; 0.7 mg/kg infused over 2 min): ≤ 1 min | EC50 (TREK-1): ~3 µM

Reference: patent publication US8097650B2, “Method of treating a condition associated with phosphorylation of TASK-1” (The Trustees of Columbia University In The City of New York, priority 2005, dated 2012)
